Consider 8 compounds from patent US20040171692A1, “Modulation of bone formation” (priority 2003, published 2004).

Entries after “also recorded” stand apart in the source; their conditions may differ.

Test [1] concerns bone forming cells (whole bone marrow cells, NASP cells, neonatal rat calvariae). As to the kind of experiment: CFU-f and NASP cell assays in combination with neonatal rat calvarial organ cultures (bone anabolic activity). The note with it: for bone anabolic activity: useful = equivalent activity to that of PGE2, FIGS. 4-7. Type of test: cell-based. The text has this:
The main reason for the lack of understanding of the cellular basis for the actions of bone anabolic drugs is that there exists, at present, no single in vitro assay which responds to these drugs in an appropriate manner. However, we have now developed a number of assays which, when used in combination with neonatal rat calvarial organ cultures, are able to predict bone anabolic agents.
Whole bone marrow cells (BMC's) were obtained from the tibias and femurs of 125 g male Wistar rats. The bones were removed under aseptic conditions and all soft adherent tissue removed. An end of each bone was removed, a hole made in the opposing end with an 18 gauge syringe needle, and the cells isolated centrifugally [Dobson K. R., et al., Calcif. tissue Int., 65:411-413 (1999)]. The cells were dispersed in 10 ml DMEM (containing 12% FCS, 1×10^−8 M dexamethasone and […] ascorbic acid) by repeated pipetting, and a single-cell suspension achieved by forcefully expelling the cells through a 20 gauge syringe needle. The cells were then used in the protocols described below.
To analyse the numbers of fibroblastic-colony forming units (CFU-f) in either whole BMC or high density non-adherent stromal precursor (NASP) cell cultures, 10^6 nucleated BMC, or the non-adherent cells from the high density NASP cell cultures, were plated out on 55 cm^2 petri dishes in DMEM containing; 12% FCS, 1×10^−8 M dexamethasone and 50 μg/ml ascorbic acid. In the case of the CFU-f analysis of whole BMC, the test agents were added once at the beginning of the culture period. In the case of NASP cell cultures, the test agents were added at the beginning of the NASP cell cultures themselves and the CFU-f assay only used to assess the number of CFU-f generated during the NASP cell culture. The medium was changed after 5 days and, thereafter, twice weekly. The cultures were maintained for 18 days, after which the cells were washed with PBS and fixed, by the addition of cold ethanol.
After fixation, the cultures were stained for alkaline phosphatase (APase) positive, calcium positive, collagen positive and total colonies as described by Scutt & Bertram (J. Bone and Mineral Res. 10:474-489, 1995). The cultures were then photographed using a digital camera and the APase positive, calcium positive, collagen positive and total colonies quantitated using Bioimage “Intelligent Quantifier” image analysis software [Dobson K., et al., A cost effective method for the automatic quantitative analysis of fibroblastic-colony forming units with osteoblastic potential. Calcif. Tissue Int. 65:166-172 (1999)].
BMC were cultured at a density of 1.5×10^6 cells per 2 cm^2 well in 0.75 ml DMEM containing 12% FCS, 10^−8 M dexamethasone and 50 μg/ml ascorbic acid. Solutions of the agents to be tested were added to the wells and then cultured for 4 days. The numbers of NASP cells present in the supernatant were then quantitated as described above for CFU-f cultures. To do this, the cultures were gently agitated and the supernatants, containing the non-adherent cells, were transferred to 55 cm^2 petri dishes. 10 ml of DMEM containing 12% FCS, 1×10^−8 M dexamethasone, 50 μg/ml ascorbic acid was added and the cultures maintained further as described above for CFU-f cultures.
One day old rat pups were killed and the calvariae (skull cases) dissected out. The calvariae were then cut along the sagittal suture to give two hemicalvariae per foetus. Each bone was cultured in 2 ml DMEM containing 1 mg/ml BSA, 50 μg/ml ascorbic acid, 60 μg/ml penicillin, and 50 μg/ml streptomycin and 1×10^−8 M dexamethasone in 35 mm tissue culture wells. After 24 h, the medium was replaced with fresh medium, any test agent added, and the tissue cultured for a further 48 h.
In this assay, each bone was pulsed with 10 μCi of [^3H]proline for 24 h at the end of the culture period. The bones were washed successively in trichloroacetic acid (TCA), acetone, and ether, and then dried. […]

The subject of the next test is whole bone marrow cells. Briefly: Fibroblastic colony forming unit (CFU-f) cultures, colony numbers. The format is cell-based, rat. As for the experimental part: Whole bone marrow cells (BMC's) were obtained from the tibias and femurs of 125 g male Wistar rats. The bones were removed under aseptic conditions and all soft adherent tissue removed. An end of each bone was removed, a hole made in the opposing end with an 18 gauge syringe needle, and the cells isolated centrifugally [Dobson K. R., et al., Calcif. tissue Int., 65:411-413 (1999)]. The cells were dispersed in 10 ml DMEM (containing 12% FCS, 1×10^−8 M dexamethasone and […] ascorbic acid) by repeated pipetting, and a single-cell suspension achieved by forcefully expelling the cells through a 20 gauge syringe needle. The cells were then used in the protocols described below. To analyse the numbers of fibroblastic-colony forming units (CFU-f) in either whole BMC or high density non-adherent stromal precursor (NASP) cell cultures, 10^6 nucleated BMC, or the non-adherent cells from the high density NASP cell cultures, were plated out on 55 cm^2 petri dishes in DMEM containing; 12% FCS, 1×10^−8 M dexamethasone and 50 μg/ml ascorbic acid. In the case of the CFU-f analysis of whole BMC, the test agents were added once at the beginning of the culture period. In the case of NASP cell cultures, the test agents were added at the beginning of the NASP cell cultures themselves and the CFU-f assay only used to assess the number of CFU-f generated during the NASP cell culture. The medium was changed after 5 days and, thereafter, twice weekly. The cultures were maintained for 18 days, after which the cells were washed with PBS and fixed, by the addition of cold ethanol. […] The cultures were then photographed using a digital camera and the APase positive, calcium positive, collagen positive and total colonies quantitated using Bioimage “Intelligent Quantifier” image analysis software [Dobson K., et al., A cost effective method for the automatic quantitative analysis of fibroblastic-colony forming units with osteoblastic potential. […]

The next test has as its system MB-1.8 cells. The note with it: MB-1.8 cells exposed to TZD; cited from earlier work.

With `CCCCC[C@H](O)/C=C/[C@H]1C=CC(=O)[C@@H]1C/C=C\CCCC(=O)O` [PGA2], the bone anabolic activity result in test [1] was “useful activity”.

Turning to `CCCCC[C@H](O)/C=C/[C@H]1C=CC(=O)[C@@H]1CCCCCCC(=O)O` [PGA1], the “response in all three assays” value in test [1] (alkaline phosphatase activity, calcium uptake and collagen synthesis, FIG. 1) is given as “positive response”. Besides, the “bone anabolic activity relative to PGE2” value in test [1] (compared with PGE2, FIGS. 1-3) was “comparable with that produced by PGE2; also recorded: at least as good as that of PGE2”. For the same compound, in the test on whole bone marrow cells, the colony numbers result is reported as “significant dose dependent increase”.

As for `CCCCCCCCCCCCCCCC(=O)OC` [Methyl palmitate, methyl palmitate], the colony numbers result with whole bone marrow cells is listed as “stimulation”.

For the compound `CC#CCC(C)[C@H](O)/C=C/[C@@H]1[C@H]2C/C(=C/CCCC(=O)O)C[C@H]2C[C@H]1O` (some centres unmarked) [iloprost], in the test with whole bone marrow cells, the colony numbers result was “stimulation comparable with that of PGA1”.

For the compound `CN(CCOc1ccc(CC2SC(=O)NC2=O)cc1)c1ccccn1` (centres unmarked) [TZD, 5-(4-{[N-methyl-N(2-pyridyl)-amino]ethoxy}benzyl)thiazolidine-2,4-dione], in the test on MB-1.8 cells, the “alkaline phosphatase activity and expression of osteoblast-associated genes” value is “decrease”; the “expression of adipocyte fatty acid protein” value was “enhancing”.

With `CCCCC/C=C\C/C=C\CCCCCCCC(=O)O` [Linoleic acid, linoleic acid], in test [1], the bone anabolic activity entry is “showed bone anabolic activity”.

Consider `CCCCCCCC/C=C\CCCCCCCC(=O)O` [oleic acid], for which the bone anabolic activity entry in test [1] is “useful activity”.

Regarding `c1cc2c(cc1[C@H]1OC[C@H]3[C@@H]1CO[C@@H]3c1ccc3c(c1)OCO3)OCO2` [sesamin], in test [1], the bone anabolic activity entry is reported as “useful activity”.
